Measured values: patent US9771352B2, “Hydroxyalkyl-substituted phenyltriazole derivatives and uses thereof” (BAYER PHARMA AKTIENGESELLSCHAFT, priority 2014, dated 2017)

How the values were obtained:
human V1a receptor = target: T1, human V1a receptor (Homo sapiens, UniProt P37288); experiment: Cellular in vitro assay for determining vasopressin receptor activity, V1a receptor cell line (photoprotein luminescence); assay type: cell-based; details: CHO cell line transfected with human V1a receptor; [Arg8]-vasopressin at EC50; compounds of the invention (Table 1A); read-out: IC50 hV1a
T1 construct: expressed in transfected cells; host or cells: CHO K1 (ATCC), also stably transfected with modified aequorin
T1 sequence (P37288 whole entry): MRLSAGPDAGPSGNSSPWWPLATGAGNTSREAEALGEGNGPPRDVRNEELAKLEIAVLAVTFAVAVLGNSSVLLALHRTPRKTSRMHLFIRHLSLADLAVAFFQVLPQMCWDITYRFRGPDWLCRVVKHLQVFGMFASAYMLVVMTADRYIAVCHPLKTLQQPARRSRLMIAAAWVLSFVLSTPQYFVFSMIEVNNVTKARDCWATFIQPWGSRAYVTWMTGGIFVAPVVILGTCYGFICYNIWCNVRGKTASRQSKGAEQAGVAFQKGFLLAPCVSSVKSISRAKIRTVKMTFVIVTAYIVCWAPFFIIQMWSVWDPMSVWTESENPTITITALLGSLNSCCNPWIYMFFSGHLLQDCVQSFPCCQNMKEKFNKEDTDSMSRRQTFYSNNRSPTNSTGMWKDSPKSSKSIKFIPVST
Method: (§1) The identification of agonists and antagonists of the V1a and V2 vasopressin receptors from humans, rats and dogs as well as the quantification of the activity of the compounds of the invention is carried out using recombinant cell lines. These cell lines originally derive from a hamster's ovary epithelial cell (Chinese Hamster Ovary, CHO K1, ATCC: American Type Culture Collection, Manassas, Va. 20108, USA). The test cell lines constitutively express the human, rat or dog V1a or V2 receptors. In case of the […] V1a receptors, cells are also stably transfected with a modified form of the calcium-sensitive photoproteins aequorin (human and rat V1a) or obelin (dog V1a), which, after reconstitution with the cofactor coelenterazine, emit light when there are increases in free calcium concentrations [Rizzuto R, Simpson A W, Brini M, Pozzan T, Nature 358, 325-327 (1992); Illarionov B A, Bondar V S, Illarionova V A, Vysotski E S, Gene 153 (2), 273-274 (1995)]. The resulting vasopressin receptor cells react to stimulation of the recombinantly expressed V1a receptors by intracellular release of calcium ions, which can be quantified by the resulting photoprotein luminescence. The Gs-coupled V2 receptors are stably transfected into cell lines expressing the gene for firefly luciferase under control of a CRE-responsible promoter. Activation of V2 receptors induces the activation of the CRE-responsive promoter via cAMP increase, thereby inducing the expression of firefly luciferase. The light emitted by photoproteins of V1a cell lines as well as the light emitted by firefly luciferase of V2 cell lines corresponds to the activation or inhibition of the respective vasopressin receptor. The bioluminescence of the cell lines is detected using a suitable luminometer [Milligan G, Marshall F, Rees S, Trends in Pharmacological Sciences 17, 235-237 (1996)].
On the day before the assay, the cells are plated out in culture medium (DMEM/F12, 2% FCS, 2 mM glutamine, 10 mM HEPES, 5 μg/ml coelenterazine) in 384-well microtiter plates and kept in a cell incubator (96% humidity, 5% v/v CO2, 37° C.). On the day of the assay, test compounds in various concentrations are placed for 10 minutes in the wells of the microtiter plate before the agonist [Arg^8]-vasopressin at EC50 concentration is added. The resulting light signal is measured immediately in the luminometer.
(§2) Table 1A below lists individual IC50 values for the compounds of the invention (including diastereomeric mixtures as well as separated, enantiopure diastereomers) that were obtained from cell lines transfected with the human V1a or V2 receptor: […]

human V2 receptor = target: T2, human V2 receptor (Homo sapiens, UniProt P30518); experiment: Cellular in vitro assay for determining vasopressin receptor activity, V2 receptor cell line (CRE-luciferase); assay type: cell-based; details: CHO cell line transfected with human V2 receptor; [Arg8]-vasopressin at EC50; compounds of the invention (Table 1A); read-out: IC50 hV2
T2 construct: expressed in transfected cells; host or cells: CHO K1 (ATCC) expressing firefly luciferase under a CRE-responsive promoter
T2 sequence (P30518 whole entry): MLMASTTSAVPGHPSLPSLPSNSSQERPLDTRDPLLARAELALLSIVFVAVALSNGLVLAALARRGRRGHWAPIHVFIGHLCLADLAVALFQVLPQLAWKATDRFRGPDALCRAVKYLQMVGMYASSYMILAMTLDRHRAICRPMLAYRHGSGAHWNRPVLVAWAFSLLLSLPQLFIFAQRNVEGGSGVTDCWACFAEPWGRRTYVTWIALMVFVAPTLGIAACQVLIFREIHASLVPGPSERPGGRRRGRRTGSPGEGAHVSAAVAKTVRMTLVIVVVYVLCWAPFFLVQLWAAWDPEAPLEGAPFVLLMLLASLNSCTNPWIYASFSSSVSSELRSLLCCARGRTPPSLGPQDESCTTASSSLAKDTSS
Method: as §1
On the day before the assay, the cells are plated out in culture medium (DMEM/F12, 2% FCS, 2 mM glutamine, 10 mM HEPES) in 384-well microtiter plates and kept in a cell incubator (96% humidity, 5% v/v CO2, 37° C.). […] Upon addition of the cell lysis reagent Triton and the substrate luciferin, luminescence of firefly luciferase is measured in a luminometer.
as §2

Row | IC50 (human V1a receptor) [nM] | IC50 (human V2 receptor) [nM] | Structure (SMILES)
1 | 1.4 | 1.4 | COc1ccccc1-n1nc(Cn2nc(-c3ccc(Cl)cc3)n(C[C@H](O)C(F)(F)F)c2=O)nc1C(C)O (mixture of isomers) [Example 10, 5-(4-Chlorophenyl)-2-({5-[(1RS)-1-hydroxyethyl]-1-(2-methoxyphenyl)-1H-1,2,4-triazol-3-yl}-methyl)-4-[(2S)-3,3,3-trifluoro-2-hydroxypropyl]-2,4-dihydro-3H-1,2,4-triazol-3-one]
2 | 6.2 | 1.4 | CC(O)c1nc(Cn2nc(-c3ccc(Cl)cc3)n(C[C@H](O)C(F)(F)F)c2=O)nn1-c1cc(F)cc(Cl)c1 (mixture of isomers) [Example 13, 2-({1-(3-Chloro-5-fluorophenyl)-5-[(1RS)-1-hydroxyethyl]-1H-1,2,4-triazol-3-yl}methyl)-5-(4-chlorophenyl)-4-[(2S)-3,3,3-trifluoro-2-hydroxypropyl]-2,4-dihydro-3H-1,2,4-triazol-3-one]
3 | 3.1 | 6 | CC(O)c1nc(Cn2nc(-c3ccc(Cl)cc3)n(C[C@H](O)C(F)(F)F)c2=O)nn1-c1ccccc1 (mixture of isomers) [Example 16, 5-(4-Chlorophenyl)-2-({5-[(1RS)-1-hydroxyethyl]-1-phenyl-1H-1,2,4-triazol-3-yl}methyl)-4-[(2S)-3,3,3-trifluoro-2-hydroxypropyl]-2,4-dihydro-3H-1,2,4-triazol-3-one]
4 | 12.4 | 1.4 | CC(O)c1nc(Cn2nc(-c3ccc(Cl)cc3)n(C[C@H](O)C(F)(F)F)c2=O)nn1-c1cccc(C(F)F)c1 (mixture of isomers) [Example 19, 5-(4-Chlorophenyl)-2-({1-[3-(difluoromethyl)phenyl]-5-[(1RS)-1-hydroxyethyl]-1H-1,2,4-triazol-3-yl}methyl)-4-[(2S)-3,3,3-trifluoro-2-hydroxypropyl]-2,4-dihydro-3H-1,2,4-triazol-3-one]
5 | 24.4 | 2.3 | CC(O)c1nc(Cn2nc(-c3ccc(Cl)cc3)n(C[C@H](O)C(F)(F)F)c2=O)nn1-c1cccc(C(F)(F)F)c1 (mixture of isomers) [Example 22, 5-(4-Chlorophenyl)-2-({5-[(1RS)-1-hydroxyethyl]-1-[3-(trifluoromethyl)phenyl]-1H-1,2,4-triazol-3-yl}methyl)-4-[(2S)-3,3,3-trifluoro-2-hydroxypropyl]-2,4-dihydro-3H-1,2,4-triazol-3-one]
6 | 7.2 | 3.6 | CC(O)c1nc(Cn2nc(-c3ccc(Cl)cc3)n(C[C@H](O)C(F)(F)F)c2=O)nn1-c1cc(F)cc(F)c1 (mixture of isomers) [Example 25, 5-(4-Chlorophenyl)-2-({1-(3,5-difluorophenyl)-5-[(1RS)-1-hydroxyethyl]-1H-1,2,4-triazol-3-yl}-methyl)-4-[(2S)-3,3,3-trifluoro-2-hydroxypropyl]-2,4-dihydro-3H-1,2,4-triazol-3-one]
7 | 1.3 | 0.2 | Cc1cccc(-n2nc(Cn3nc(-c4ccc(Cl)cc4)n(C[C@H](O)C(F)(F)F)c3=O)nc2C(C)O)c1 (mixture of isomers) [Example 28, 5-(4-Chlorophenyl)-2-({5-[(1RS)-1-hydroxyethyl]-1-(3-methylphenyl)-1H-1,2,4-triazol-3-yl}-methyl)-4-[(2S)-3,3,3-trifluoro-2-hydroxypropyl]-2,4-dihydro-3H-1,2,4-triazol-3-one]
8 | 1.6 | 0.9 | CCc1ccccc1-n1nc(Cn2nc(-c3ccc(Cl)cc3)n(C[C@H](O)C(F)(F)F)c2=O)nc1C(C)O (mixture of isomers) [Example 31, 5-(4-Chlorophenyl)-2-({1-(2-ethylphenyl)-5-[(1RS)-1-hydroxyethyl]-1H-1,2,4-triazol-3-yl}-methyl)-4-[(2S)-3,3,3-trifluoro-2-hydroxypropyl]-2,4-dihydro-3H-1,2,4-triazol-3-one]
9 | 0.4 | 1.2 | CC(O)c1nc(Cn2nc(-c3ccc(Cl)cc3)n(C[C@H](O)C(F)(F)F)c2=O)nn1-c1ccc(F)cc1Cl (mixture of isomers) [Example 34, 2-({1-(2-Chloro-4-fluorophenyl)-5-[(1RS)-1-hydroxyethyl]-1H-1,2,4-triazol-3-yl}methyl)-5-(4-chlorophenyl)-4-[(2S)-3,3,3-trifluoro-2-hydroxypropyl]-2,4-dihydro-3H-1,2,4-triazol-3-one]
10 | 0.5 | 0.7 | COc1ccc(F)cc1-n1nc(Cn2nc(-c3ccc(Cl)cc3)n(C[C@H](O)C(F)(F)F)c2=O)nc1C(C)O (mixture of isomers) [Example 37, 5-(4-Chlorophenyl)-2-({1-(5-fluoro-2-methoxyphenyl)-5-[(1RS)-1-hydroxyethyl]-1H-1,2,4-triazol-3-yl}methyl)-4-[(2S)-3,3,3-trifluoro-2-hydroxypropyl]-2,4-dihydro-3H-1,2,4-triazol-3-one]
11 | 1.5 | 7.2 | CC(O)c1nc(Cn2nc(-c3ccc(Cl)cc3)n(C[C@H](O)C(F)(F)F)c2=O)nn1-c1ccccc1F (mixture of isomers) [Example 40, 5-(4-Chlorophenyl)-2-({1-(2-fluorophenyl)-5-[(1RS)-1-hydroxyethyl]-1H-1,2,4-triazol-3-yl}-methyl)-4-[(2S)-3,3,3-trifluoro-2-hydroxypropyl]-2,4-dihydro-3H-1,2,4-triazol-3-one]
12 | 6.2 | 1.2 | CC(O)c1nc(Cn2nc(-c3ccc(Cl)cc3)n(C[C@H](O)C(F)(F)F)c2=O)nn1-c1ccc(F)c(Cl)c1 (mixture of isomers) [Example 43, 2-({1-(3-Chloro-4-fluorophenyl)-5-[(1RS)-1-hydroxyethyl]-1H-1,2,4-triazol-3-yl}methyl)-5-(4-chlorophenyl)-4-[(2S)-3,3,3-trifluoro-2-hydroxypropyl]-2,4-dihydro-3H-1,2,4-triazol-3-one]
13 | 6.3 | 2.1 | CC(O)c1nc(Cn2nc(-c3ccc(Cl)cc3)n(C[C@H](O)C(F)(F)F)c2=O)nn1-c1cc(Cl)cc(Cl)c1 (mixture of isomers) [Example 46, 5-(4-Chlorophenyl)-2-({1-(3,5-dichlorophenyl)-5-[(1RS)-1-hydroxyethyl]-1H-1,2,4-triazol-3-yl}-methyl)-4-[(2S)-3,3,3-trifluoro-2-hydroxypropyl]-2,4-dihydro-3H-1,2,4-triazol-3-one]
14 | 1.8 | 12.6 | CC(O)c1nc(Cn2nc(-c3ccc(Cl)cc3)n(C[C@H](O)C(F)(F)F)c2=O)nn1-c1cc(Cl)ccc1Cl (mixture of isomers) [Example 49, 5-(4-Chlorophenyl)-2-({1-(2,5-dichlorophenyl)-5-[(1RS)-1-hydroxyethyl]-1H-1,2,4-triazol-3-yl}-methyl)-4-[(2S)-3,3,3-trifluoro-2-hydroxypropyl]-2,4-dihydro-3H-1,2,4-triazol-3-one]
15 | 3.9 | 0.4 | CC(O)c1nc(Cn2nc(-c3ccc(Cl)cc3)n(C[C@H](O)C(F)(F)F)c2=O)nn1-c1cccc(Cl)c1F (mixture of isomers) [Example 52, 2-({1-(3-Chloro-2-fluorophenyl)-5-[(1RS)-1-hydroxyethyl]-1H-1,2,4-triazol-3-yl}methyl)-5-(4-chlorophenyl)-4-[(2S)-3,3,3-trifluoro-2-hydroxypropyl]-2,4-dihydro-3H-1,2,4-triazol-3-one]
16 |  | 2.4 | CC(O)c1nc(Cn2nc(-c3ccc(Cl)cc3)n(C[C@H](O)C(F)(F)F)c2=O)nn1-c1cc(F)ccc1Cl (single isomer, unassigned) [Example 59]
17 |  | 5.2 | CC(O)c1nc(Cn2nc(-c3ccc(Cl)cc3)n(C[C@H](O)C(F)(F)F)c2=O)nn1-c1cc(F)ccc1Cl (single isomer, unassigned) [Example 60]
